One series has as its system cell membrane. Put plainly: Cell uptake / passage through the cell membrane. The procedure:
OCTBP uptake by KB cells. 11 mg of OCTBP was dissolved in 40 mL of PBS buffer. The solution was vortex stirred for 5 minutes to completely dissolve the solid. The solution was sterile filtered through a 0.2μ nylon syringe filter. The concentration of the solution was determined by measuring the UV absorption at 353 nm (ε353nm=1565 M^−1cm^−1).
Once the cells were 75% confluent media was decanted from the flasks and 8 mL of drug solutions were added to three flasks and 8 mL of PBS buffer solution was added to the control flask. The flasks were incubated at 37° C. for 15, 30 and 45 minutes. Control flask was incubated for 45 minutes. When the flasks were removed, they were washed with 6×10 mL of PBS buffer solution. All the liquid was carefully decanted from the flasks. 1 mL of lysing buffer (1% triton X-100) was added to each of the four flasks. The walls of the flasks were rinsed using disposable pipettes. Once all the contents of the flasks were placed into a 1.5 mL disposable centrifuge tubes (each flask yielded ˜1.2 mL), the tubes were centrifuged at 6000 rpm and at 4° C. for 30 minutes on the Fisher Model 59V high-speed centrifuge. BCA Assay was done to establish the amount of cells in each flask.
Rh content of each flask was determined using an inductively coupled plasma (ICP) instrument (AtomScan16, Thermo Elemental, Franklin, Mass.). From each centrifuge tube 1 mL was pipetted and 370 μL of concentrated HCl was added to form a 10% solution. The samples were heated in a hot water bath at 70° C. for 30 minutes. The samples were centrifuged again and the supernatant liquid was diluted to 8 mL by adding nano-pure water. The samples were analyzed for Rh content by ICP.

The subject of another series is M109 cells. In words: Phototoxicity to M109 tumor cells, MTT assay. Type of series: cell-based, mouse. The following applies: dark, zero time point. The procedure: Photolysis with Tumor Cells.
Procedures for cell maintenance, cell plating, drug incubation, photolysis and MTT assay are all same as that used for the KB cell lines. A small amount of dark toxicity was observed (about 15%). A considerable amount of killing occurs with light alone after 30 and 40 minutes of irradiation (FIG. 10).
A general note: Tetrazolium dyes change colour on reduction, which living cells bring about.

SMILES strings stand for the structures.

Consider `[Cl-].[Cl][Rh+]12([Cl])([N]3C=CC=c4ccc5c(c43)[N]1C=CC=5)[N]1C=CC=c3c1c1c(c4nc5ccccc5nc34)=CC=C[N]12` [DPPZPHEN, cis-dichloro(dipyrido[3,2a-2′3′c]phenazine)(1,10-phenantroline) rhodium(III) chloride], for which the “ability to pass through the cell membrane” value in the series on cell membrane is listed as “able to pass through the cell membrane”. In the series on M109 cells, the “cell toxicity in the absence of light” value is reported as “no appreciable degree of cell toxicity”.

Source of the values: patent US20060111335A1, “Photoactivated anti-viral and anti-cancer agent” (priority 2002, published 2006).
